Inhibition and IC50 data for 10 compounds are collected here from patent US11072632B2, “Inhibitors of 17β-HSD1, 17β-HSD3 and 17β-HSD10” (UNIVERSITÉ LAVAL, priority 2011, dated 2021).

Like-named read-outs stand apart in the source and are kept apart here.

The IC50 is the midpoint of a concentration-inhibition curve. The low end stands for greater potency, the high end for weaker potency.

Test [1] deals with T1, 17β-HSD3 (Homo sapiens, UniProt P37058).
T1 construct: expressed in transfected cells; host or cells: HEK-293 (homogenate)
T1 sequence (P37058 1-310): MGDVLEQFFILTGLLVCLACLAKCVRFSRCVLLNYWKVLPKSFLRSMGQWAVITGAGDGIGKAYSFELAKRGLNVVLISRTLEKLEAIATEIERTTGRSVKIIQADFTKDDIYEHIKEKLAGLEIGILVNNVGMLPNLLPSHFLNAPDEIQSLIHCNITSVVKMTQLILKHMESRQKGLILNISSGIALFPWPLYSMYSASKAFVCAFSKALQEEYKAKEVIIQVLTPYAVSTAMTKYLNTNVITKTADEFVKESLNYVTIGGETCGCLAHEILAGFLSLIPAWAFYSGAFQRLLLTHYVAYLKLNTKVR
Description: Inhibition of 17β-HSD3 in homogenated HEK-293 cells. The class given is biochemical.

Test [2] deals with T1, 17β-HSD3. Kind of test: Inhibition of 17β-HSD3 in intact HEK-293 cells. The class given is cell-based. The settings on record: for inhibition at 0.1 µM / inhibition at 1 µM: HEK293, 1 h.
Setting [3] is: Table 2 (17β-HSD3), read-out: Homo (%) (0.1 μM).
Setting [4] is: Table 2 (17β-HSD3), 1 μM, read-out: Homo (%) (1 μM).
The mark [5] stands for this setting: Table 2 (17β-HSD3), [14C]-Δ4-dione 50 nM into [14C]-T, read-out: Homo (%) (0.01 μM).
[6] abbreviates: Table 2 (17β-HSD3), read-out: Intact cells (%) (0.1 μM).
Setting [7] is: Table 2 (17β-HSD3), read-out: Intact cells (%) (1 μM).
Setting [8] is: read-out: Homo (%) (0.1 μM), Table 2 (17β-HSD3).
Where [9] appears, read: read-out: Homo (%) (1 μM), Table 2 (17β-HSD3), 1 μM.
The mark [10] stands for this setting: read-out: Intact cells (%) (1 μM), Table 2 (17β-HSD3).

With `C[C@]12CC[C@@]3(C[C@@H]1CC[C@@H]1[C@@H]2CC[C@]2(C)C(=O)CC[C@@H]12)CN(CCC(CN1CCOCC1)OC(=O)CCC1CCCC1)C(=O)O3` (stereo partly drawn) [Compound 4, reference compound], the inhibition at 0.01 µM at 17β-HSD3 [1] (read-out: Homo (%) (0.01 μM), Table 4) worked out at 2%. Moreover, the inhibition at 0.1 µM worked out at 79% at 17β-HSD3 [1] (read-out: Homo (%) (0.1 μM), Table 4) and 49% at 17β-HSD3 [2] (read-out: Intact cells (%) (0.1 μM), Table 4). The inhibition at 1 µM on 17β-HSD3 [1] (read-out: Homo (%) (1.0 μM), Table 4, 1.0 μM) came out at 94%.
For `CN(Cc1ccccc1)C[C@@]1(O)CC[C@@]2(C)[C@@H](CC[C@@H]3[C@@H]2CC[C@]2(C)C(=O)CC[C@@H]32)C1` [Compound 7b, (3α,5α)-3-{[benzyl(methyl)amino]methyl}-3-hydroxyandrostan-17-one], the inhibition at 0.1 µM was determined as 79% at 17β-HSD3 [1] (setting [3]) and 48% on 17β-HSD3 [2] (setting [6]). For the same compound, the inhibition at 1 µM at 17β-HSD3 [1] (setting [4]) was determined as 89%; on 17β-HSD3 [2] (setting [7]), 92%. Further, the inhibition at 0.01 µM at 17β-HSD3 [1] (setting [5]) stood at 28%.
Consider `CCN(CC)C[C@@]1(O)CC[C@@]2(C)[C@@H](CC[C@@H]3[C@@H]2CC[C@]2(C)C(=O)CC[C@@H]32)C1` [Compound 7c, (3α,5α)-3-[(diethylamino)methyl]-3-hydroxyandrostan-17-one], for which, at 17β-HSD3 [1] (setting [3]), the inhibition at 0.1 µM amounted to 10%. In addition, the inhibition at 1 µM was 60% on 17β-HSD3 [1] (setting [4]) and 14% on 17β-HSD3 [2] (setting [7]). Moreover, the inhibition at 0.01 µM on 17β-HSD3 [1] (setting [5]) came out at 0%.
With `CCCCN(CCCC)C[C@@]1(O)CC[C@@]2(C)[C@@H](CC[C@@H]3[C@@H]2CC[C@]2(C)C(=O)CC[C@@H]32)C1` [Compound 7d, (3α,5α)-3-[(dibutylamino)methyl]-3-hydroxyandrostan-17-one], the results for the inhibition at 0.1 µM at 17β-HSD3 [1] (setting [3]) and at 17β-HSD3 [2] (setting [6]) were 70% and 53%, respectively. Further, the inhibition at 1 µM at 17β-HSD3 [1] (setting [4]) came out at 85%; on 17β-HSD3 [2] (setting [7]) it was 90%. In addition, the inhibition at 0.01 µM on 17β-HSD3 [1] (setting [5]) turned out to be 13%.
For `C[C@]12CC[C@](O)(CN3CCCCC3)C[C@@H]1CC[C@@H]1[C@@H]2CC[C@]2(C)C(=O)CC[C@@H]12` [Compound 7e, (3α,5α)-3-hydroxy-3-(piperidin-1-ylmethyl)androstan-17-one], at 17β-HSD3 [1] (setting [5]), the inhibition at 0.01 µM was determined as 9%. On 17β-HSD3 [1] (setting [8]), the inhibition at 0.1 µM was 19%. Also, the inhibition at 1 µM was 69% at 17β-HSD3 [1] (setting [9]) and 23% at 17β-HSD3 [2] (setting [10]).
In the same order, the values of `C[C@]12CC[C@](O)(CN3CCC(Cc4ccccc4)CC3)C[C@@H]1CC[C@@H]1[C@@H]2CC[C@]2(C)C(=O)CC[C@@H]12` [Compound 7f, (3α,5α)-3-[(4-benzylpiperidin-1-yl)methyl]-3-hydroxyandrostan-17-one] are 40%, 82%, 90% and 52%.
For the compound `C[C@]12CC[C@](O)(CN3CCC(N4CCCCC4)CC3)C[C@@H]1CC[C@@H]1[C@@H]2CC[C@]2(C)C(=O)CC[C@@H]12` [Compound 7g, (3α,5α)-3-(1,4′-bipiperidin-1′-ylmethyl)-3-hydroxyandrostan-17-one], the inhibition at 0.1 µM on 17β-HSD3 [1] (setting [3]) came to 4%. In addition, the inhibition at 1 µM at 17β-HSD3 [1] (setting [4]) is 69%; on 17β-HSD3 [2] (setting [7]), 20%. In addition, the inhibition at 0.01 µM on 17β-HSD3 [1] (setting [5]) was 0%.
As to `CN1CCN(C[C@@]2(O)CC[C@@]3(C)[C@@H](CC[C@@H]4[C@@H]3CC[C@]3(C)C(=O)CC[C@@H]43)C2)CC1` [Compound 7h, (3α,5α)-3-hydroxy-3-[(4-methylpiperazin-1-yl)methyl]androstan-17-one], the results for the inhibition at 0.1 µM on 17β-HSD3 [1] (setting [3]) and at 17β-HSD3 [2] (setting [6]) were 0% and 2%, respectively. Also, the inhibition at 1 µM on 17β-HSD3 [1] (setting [4]) was determined as 40%. Also, at 17β-HSD3 [1] (setting [5]), the inhibition at 0.01 µM is 0%.
Regarding `C[C@]12CC[C@](O)(CN3CCN(c4ccccc4)CC3)C[C@@H]1CC[C@@H]1[C@@H]2CC[C@]2(C)C(=O)CC[C@@H]12` [Compound 7i, (3α,5α)-3-hydroxy-3-[(4-phenylpiperazin-1-yl)methyl]androstan-17-one], at 17β-HSD3 [1] (setting [5]), the inhibition at 0.01 µM was determined as 13%. Also, the inhibition at 0.1 µM on 17β-HSD3 [1] (setting [8]) worked out at 78%. Besides, the inhibition at 1 µM amounted to 89% at 17β-HSD3 [1] (setting [9]) and 68% at 17β-HSD3 [2] (setting [10]).
`C[C@]12CCC(=O)C=C1CC[C@@H]1[C@@H]2CC[C@]2(C)C(=O)CC[C@@H]12` [Δ^4-dione, 4-androstene-3,17-dione, reference compound] displayed a 50% inhibitory concentration (IC50) against 17β-HSD3 [2] (intact HEK-293 cells overexpressing 17β-HSD3, [14C]-Δ4-dione 50 nM) of 0.337 µM.
